# Test results from patent publication US20090131468A1, “Bis-(Sulfonylamino) Derivatives in Therapy 065” (AstraZeneca AB, priority 2007, published 2009).
# Target: T1, human mPGES-1 (Homo sapiens, UniProt O14684)
# T1 sequence (O14684 1-152): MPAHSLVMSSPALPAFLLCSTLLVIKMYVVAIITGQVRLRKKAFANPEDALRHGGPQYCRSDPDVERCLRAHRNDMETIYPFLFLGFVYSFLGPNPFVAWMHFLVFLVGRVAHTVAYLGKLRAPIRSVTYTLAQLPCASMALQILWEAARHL
# Experiment: Microsomal prostaglandin E synthase biochemical assay
# Settings: microsome preparation containing human mPGES-1; PGH2 10.8 μM, GSH 2.5 mM, pH 6.8; PGE2 quantified by HTRF; average of at least n=2
# Procedure: Compounds were tested as inhibitors of microsomal prostaglandin E synthase activity in microsomal prostaglandin E synthase assays and whole cell assays. These assays measure prostaglandin E2 (PGE2) synthesis which is taken as a measure of prostaglandin E synthase activity. Microsomal prostaglandin E synthase biochemical assays used microsomal prostaglandin E synthase-1 in microsomal preparations. The source of the microsomes can be for example interleukin-1β-stimulated human A549 cells (which express human mPGES-1) or Sf9 cells transfected with plasmids encoding human mPGES-1 cDNA.
# A solution of test compound was added to a diluted microsome preparation containing human mPGES-1 and pre-incubated for 15 minutes in potassium phosphate buffer pH 6.8 with cofactor glutathione (GSH). Corresponding solutions without test compound were used as positive controls, and corresponding solutions without test compound and without microsomes were used as negative controls. The enzymatic reaction was then started by addition of the substrate PGH2 in an organic solution (dry acetonitrile).
# The reaction was stopped after one minute by adding an acidic solution (pH 1.9) of ferric chloride and citrate (final concentrations 7 mM and 47 mM respectively), by which the PGH2 was sequestered (the PGH2 is reduced to mainly 12-hydroxy heptadecatrineoic acid (12-HHT) which is not detected by the subsequent PGE2 detection step). The resulting solution was then pH neutralized by addition of potassium phosphate buffer, prior to diluting an aliquot of the resulting solution in a weak potassium phosphate buffer (50 mM, pH 6.8) containing 0.2% BSA (w/v). […] The PGE2 formed was quantified by use of a commercial HTRF based kit (catalogue #62PG2PEC or #62P2APEC from Cisbio International). 100% activity was defined as the PGE2 production in positive controls subtracted by the PGE2 production in the negative controls. IC50 values were then determined using standard procedures.
row,IC50 [nM],Compound
1,2200,"NS(=O)(=O)c1ccccc1S(=O)(=O)NC(=O)c1csc2ccccc12 [Example 40, N-(2-Sulfamoylphenyl)sulfonylbenzothiophene-3-carboxamide]"
2,5400,"CCOC(=O)c1ccc(-c2ccc(C(=O)NS(=O)(=O)c3ccccc3S(N)(=O)=O)o2)cc1 [Example 41, Ethyl 4-[5-[(2-Sulfamoylphenyl)sulfonylcarbamoyl]-2-furyl]benzoate]"
3,110,"Cc1nc(-c2cccc(Cl)c2)sc1C(=O)NS(=O)(=O)c1ccccc1S(N)(=O)=O [Example 42, 2-(3-Chlorophenyl)-4-methyl-N-(2-sulfamoylphenyl)sulfonyl-1,3-thiazole-5-carboxamide]"
4,28,"CC(C)(C)C#Cc1ccc(C(=O)NS(=O)(=O)c2ccccc2S(N)(=O)=O)cc1 [Example 43, 4-(3,3-Dimethylbut-1-ynyl)-N-(2-sulfamoylphenylsulfonyl)benzamide]"
5,240,"CC(C)(O)C#Cc1ccc(C(=O)NS(=O)(=O)c2ccccc2S(N)(=O)=O)cc1 [Example 44, 4-(3-Hydroxy-3-methylbut-1-ynyl)-N-(2-sulfamoylphenylsulfonyl)benzamide]"
6,5.5,"Cc1cc(C(=O)NS(=O)(=O)c2ccccc2S(N)(=O)=O)ccc1-c1cc2ccccc2o1 [Example 45, 4-(Benzofuran-2-yl)-3-methyl-N-(2-sulfamoylphenylsulfonyl)benzamide]"
7,46,"Cc1cc(-c2cc3ccccc3o2)ccc1C(=O)NS(=O)(=O)c1ccccc1S(N)(=O)=O [Example 46, 4-(Benzofuran-2-yl)-2-methyl-N-(2-sulfamoylphenylsulfonyl)benzamide]"
8,140,"COc1cc(C(=O)NS(=O)(=O)c2ccccc2S(N)(=O)=O)cc(OC)c1-c1cc2ccccc2o1 [Example 47, 4-(Benzofuran-2-yl)-3,5-dimethoxy-N-(2-sulfamoylphenylsulfonyl)benzamide]"
9,150,"COc1cc(-c2cc3ccccc3o2)ccc1C(=O)NS(=O)(=O)c1ccccc1S(N)(=O)=O [Example 48, 4-(Benzofuran-2-yl)-2-methoxy-N-(2-sulfamoylphenylsulfonyl)benzamide]"
10,8.1,"NS(=O)(=O)c1ccccc1S(=O)(=O)NC(=O)c1ccc(-c2cc3ccccc3o2)cc1O [Example 49, 4-(Benzofuran-2-yl)-2-hydroxy-N-(2-sulfamoylphenylsulfonyl)benzamide]"
11,540,"NS(=O)(=O)c1ccccc1S(=O)(=O)NC(=O)c1ccc(Br)cc1O [Example 49a, 4-Bromo-2-hydroxy-N-(2-sulfamoylphenylsulfonyl)benzamide]"
12,3.2,"COc1cc(C(=O)NS(=O)(=O)c2ccccc2S(N)(=O)=O)ccc1-c1cc2ccccc2o1 [Example 50, 4-(Benzofuran-2-yl)-3-methoxy-N-(2-sulfamoylphenylsulfonyl)benzamide]"
13,3.4,"NS(=O)(=O)c1ccccc1S(=O)(=O)NC(=O)c1ccc(-c2cc3ccccc3o2)c(O)c1 [Example 51, 4-(Benzofuran-2-yl)-3-hydroxy-N-(2-sulfamoylphenylsulfonyl)benzamide]"
14,450,"Cc1cc(-c2cc3ccccc3o2)cc(C)c1C(=O)NS(=O)(=O)c1ccccc1S(N)(=O)=O [Example 52, 4-(Benzofuran-2-yl)-2,6-dimethyl-N-(2-sulfamoylphenylsulfonyl)benzamide]"
15,1600,"COCC#Cc1ccc(C(=O)NS(=O)(=O)c2ccccc2S(N)(=O)=O)cc1 [Example 53, 4-(3-Methoxyprop-1-ynyl)-N-(2-sulfamoylphenylsulfonyl)benzamide]"
16,62,"C=C(C)C#Cc1ccc(C(=O)NS(=O)(=O)c2ccccc2S(N)(=O)=O)cc1 [Example 54, 4-(3-Methylbut-3-en-1-ynyl)-N-(2-sulfamoylphenylsulfonyl)benzamide]"
17,120,"NS(=O)(=O)c1ccccc1S(=O)(=O)NC(=O)c1ccc(C#Cc2ccccc2)nc1 [Example 55, 6-(Phenylethynyl)-N-(2-sulfamoylphenylsulfonyl)nicotinamide]"
18,2300,"CCC(O)(C#Cc1ccc(C(=O)NS(=O)(=O)c2ccccc2S(N)(=O)=O)cc1)CC [Example 56, 4-(3-Ethyl-3-hydroxypent-1-ynyl)-N-(2-sulfamoylphenylsulfonyl)benzamide]"
19,8800,"CCC(C)(O)C#Cc1ccc(C(=O)NS(=O)(=O)c2ccccc2S(N)(=O)=O)cc1 (stereo not shown) [Example 57, 4-(3-Hydroxy-3-methylpent-1-ynyl)-N-(2-sulfamoylphenylsulfonyl)benzamide]"

row,IC50 [nM],Compound
1,1900,"NS(=O)(=O)c1ccccc1S(=O)(=O)NC(=O)c1ccc(C#CC2(O)CCCC2)cc1 [Example 58, 4-((1-Hydroxycyclopentyl)ethynyl)-N-(2-sulfamoylphenylsulfonyl)benzamide]"
2,56,"CC(C)(O)C#Cc1cccc(C(=O)NS(=O)(=O)c2ccccc2S(N)(=O)=O)c1 [Example 59, 3-(3-Hydroxy-3-methylbut-1-ynyl)-N-(2-sulfamoylphenylsulfonyl)benzamide]"
3,270,"CC(C)(C)C#Cc1cccc(C(=O)NS(=O)(=O)c2ccccc2S(N)(=O)=O)c1 [Example 60, 3-(3,3-Dimethylbut-1-ynyl)-N-(2-sulfamoylphenylsulfonyl)benzamide]"
4,99,"CC(C)(C)C#Cc1ccc(C(=O)NS(=O)(=O)c2ccccc2S(N)(=O)=O)c2ccccc12 [Example 61, 4-(3,3-Dimethylbut-1-ynyl)-N-(2-sulfamoylphenylsulfonyl)-1-naphthamide]"
5,20,"NS(=O)(=O)c1ccccc1S(=O)(=O)NC(=O)c1ccc(-c2cc3ccccc3o2)c2ccccc12 [Example 62, 4-(Benzofuran-2-yl)-N-(2-sulfamoylphenylsulfonyl)-1-naphthamide]"
6,96,"Cc1nc(-c2cc3ccccc3o2)sc1C(=O)NS(=O)(=O)c1ccccc1S(N)(=O)=O [Example 63, 2-(Benzofuran-2-yl)-4-methyl-N-(2-sulfamoylphenylsulfonyl)thiazole-5-carboxamide]"
7,6200,"CC(C)(O)C#Cc1cccc(-c2ccccc2C(=O)NS(=O)(=O)c2ccccc2S(N)(=O)=O)c1 [Example 64, 3′-(3-Hydroxy-3-methylbut-1-ynyl)-N-(2-sulfamoylphenylsulfonyl)biphenyl-2-carboxamide]"
8,14,"NS(=O)(=O)c1ccccc1S(=O)(=O)NC(=O)c1ccc(C#CC2CCCC2)cc1 [Example 65, 4-(Cyclopentylethynyl)-N-(2-sulfamoylphenylsulfonyl)benzamide]"
9,220,"NS(=O)(=O)c1ccccc1S(=O)(=O)NC(=O)c1cccc(C#CC2CCCC2)c1 [Example 66, 3-(Cyclopentylethynyl)-N-(2-sulfamoylphenylsulfonyl)benzamide]"
10,85,"Cc1cc(C#CC2CCCC2)ccc1C(=O)NS(=O)(=O)c1ccccc1S(N)(=O)=O [Example 67, 4-(Cyclopentylethynyl)-2-methyl-N-(2-sulfamoylphenylsulfonyl)benzamide]"
11,2000,"COc1c(C#CC(C)(C)C)ccc(C(=O)NS(=O)(=O)c2ccccc2S(N)(=O)=O)c1C [Example 68, 4-(3,3-Dimethylbut-1-ynyl)-3-methoxy-2-methyl-N-(2-sulfamoylphenylsulfonyl)-benzamide]"
12,79,"COc1c(-c2cc3ccccc3o2)ccc(C(=O)NS(=O)(=O)c2ccccc2S(N)(=O)=O)c1C [Example 69, 4-(Benzofuran-2-yl)-3-methoxy-2-methyl-N-(2-sulfamoylphenylsulfonyl)benzamide]"
13,320,"NS(=O)(=O)c1ccccc1S(=O)(=O)NC(=O)c1ccc(C#Cc2cccnc2)cc1 [Example 70, 4-(Pyridin-3-ylethynyl)-N-(2-sulfamoylphenylsulfonyl)benzamide]"
14,1000,"NS(=O)(=O)c1ccccc1S(=O)(=O)NC(=O)c1ccc(C#Cc2ccccn2)cc1 [Example 71, 4-(Pyridin-2-ylethynyl)-N-(2-sulfamoylphenylsulfonyl)benzamide]"
15,10,"NS(=O)(=O)c1ccccc1S(=O)(=O)NC(=O)c1ccc(C#Cc2ccccc2)cc1 [Example 72, 4-(Phenylethynyl)-N-(2-sulfamoylphenylsulfonyl)benzamide]"
16,60,"CC(C)(C)C#Cc1ccc(C(=O)NS(=O)(=O)c2ccccc2S(N)(=O)=O)cc1F [Example 73, 4-(3,3-Dimethylbut-1-ynyl)-3-fluoro-N-(2-sulfamoylphenylsulfonyl)benzamide]"
17,24,"COc1cccc(-c2cc3cc(C(=O)NS(=O)(=O)c4ccccc4S(N)(=O)=O)ccc3o2)c1 [Example 74, 2-(3-Methoxyphenyl)-N-(2-sulfamoylphenylsulfonyl)benzofuran-5-carboxamide]"
18,29,"COc1ccc(-c2cc3cc(C(=O)NS(=O)(=O)c4ccccc4S(N)(=O)=O)ccc3o2)cc1 [Example 75, 2-(4-Methoxyphenyl)-N-(2-sulfamoylphenylsulfonyl)benzofuran-5-carboxamide]"
